Tested on: E. histolytica
Test: E. histolytica viability, ATP luminescence (Cell titer glo)
Format: cell-based, Entamoeba histolytica
Details: Entamoeba histolytica, 48 h
Procedure: Entamoeba histolytica (strain B2-5) was passaged in TY-1 medium (Trypticase peptone BBL, Yeast extract BBL, glucose, NaCl, K2HPO4, KH2PO4, cysteine, ascorbic acid, ammonium iron citrate, adult bovine serum, Diamond tween 80, penicillin G, amikacin (pH:6.8)) and kept in 37°C incubator in completely filled tubes with closed lid.
Viability of E. histolytica was assayed via a luminescence assay based on ATP quantification in the live cells. Briefly, 2.5x10^4 cell/ml were exposed to 25 μM of compounds in 96 well plates (non-transparent, tissue culture treated, flat bottom; SPL Life Sciences) in triplicate for 48h. Plates were incubated in sealed anaerobic bags (Oxoid AGS) together with an Anaerogen compact bag (Thermo Scientific) and anaerobic indicator (Thermo Scientific) at 37°C. Then, Cell titer glo reagent (Promega) was added to the reaction (1:5) according to manufacturers’ instruction. After 15 min of orbital shaking, followed by 10 min incubation at RT, ATP-bioluminescence was quantified at RT using a Synergy H1 plate reader (Synergy H1, BioTek). Metronidazole was included as control drug in all the assays for E. histolytica. Test compounds indicating significant growth reduction in the primary screen were subjected to potency determination. These secondary screens were essentially carried out as detailed above, but with a 9 to 16-point concentration range of the test compounds spanning 0.01–100 μM.

Which results are given for `Cc1ncc([N+](=O)[O-])n1CCO` [Metronidazole, reference compound]?
viability at 2.5 µM (read-out: Residual viability, E.histolytica (2.5 µM)): 71.6 ± 32.3%; viability at 25 µM (read-out: Residual viability, E.histolytica (25 µM)): -7.82 ± 3.48%; EC50 (9 to 16-point dose response): 2900 ± 1800 nM

— paper PMC10994559 (PLOS Neglected Tropical Diseases, 2024)
